Target: RNA cytosine C(5)-methyltransferase NSUN2 (Homo sapiens) (UniProt Q08J23)
Assay: Binding affinity to human NSUN2 assessed as ratio of kinact/Ki

Chain of RNA cytosine C(5)-methyltransferase NSUN2 (Homo sapiens) (Q08J23 whole entry): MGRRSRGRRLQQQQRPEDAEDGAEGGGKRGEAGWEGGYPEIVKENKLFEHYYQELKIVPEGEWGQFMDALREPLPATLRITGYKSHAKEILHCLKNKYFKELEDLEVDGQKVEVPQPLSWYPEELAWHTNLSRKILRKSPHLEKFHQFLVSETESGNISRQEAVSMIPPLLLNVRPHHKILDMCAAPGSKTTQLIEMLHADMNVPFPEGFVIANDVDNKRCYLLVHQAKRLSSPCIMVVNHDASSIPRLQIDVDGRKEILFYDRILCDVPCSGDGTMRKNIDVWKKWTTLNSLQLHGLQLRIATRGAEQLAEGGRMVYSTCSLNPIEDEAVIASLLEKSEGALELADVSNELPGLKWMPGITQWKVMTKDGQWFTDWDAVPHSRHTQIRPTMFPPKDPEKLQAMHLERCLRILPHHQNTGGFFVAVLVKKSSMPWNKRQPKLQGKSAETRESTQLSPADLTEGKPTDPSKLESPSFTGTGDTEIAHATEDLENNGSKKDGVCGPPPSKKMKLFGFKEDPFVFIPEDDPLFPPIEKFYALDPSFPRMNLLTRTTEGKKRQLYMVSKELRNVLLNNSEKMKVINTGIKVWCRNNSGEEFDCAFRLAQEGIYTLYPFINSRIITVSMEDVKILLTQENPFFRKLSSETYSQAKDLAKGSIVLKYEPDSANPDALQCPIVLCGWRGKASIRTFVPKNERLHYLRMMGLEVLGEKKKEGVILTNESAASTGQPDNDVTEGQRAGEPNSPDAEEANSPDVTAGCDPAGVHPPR

- kinact/Ki: 67 M⁻¹ s⁻¹
SMILES: C=CC(=O)N1C[C@H](c2ccc(Br)cc2)[C@@H]1C(=O)Nc1cccc2cccnc12

Reference: ChEMBL document CHEMBL6078631, “Covalent inhibitors meet epigenetics: New opportunities” (Eur J Med Chem, 2024)
